Results from ChEMBL document CHEMBL5678818, “Discovery of potent SOS1 inhibitors that block RAS activation via disruption of the RAS-SOS1 interaction” (Proc Natl Acad Sci U S A, 2019).

Key:
[1] = tested on: Tyrosine-protein kinase ABL1 (Homo sapiens), P00519 [F317L]; assay: Inhibition of nonphosphorylated ABL1 F317L mutant (unknown origin) assessed as residual activity at 1000 nM by KINOMEscan analysis relative to control
[2] = molecular target: T1, Serine/threonine-protein kinase BRSK1 (Homo sapiens) (UniProt Q8TDC3); assay: Inhibition of BRSK1 (unknown origin) assessed as residual activity at 1000 nM by KINOMEscan analysis relative to control
T1 sequence (whole entry): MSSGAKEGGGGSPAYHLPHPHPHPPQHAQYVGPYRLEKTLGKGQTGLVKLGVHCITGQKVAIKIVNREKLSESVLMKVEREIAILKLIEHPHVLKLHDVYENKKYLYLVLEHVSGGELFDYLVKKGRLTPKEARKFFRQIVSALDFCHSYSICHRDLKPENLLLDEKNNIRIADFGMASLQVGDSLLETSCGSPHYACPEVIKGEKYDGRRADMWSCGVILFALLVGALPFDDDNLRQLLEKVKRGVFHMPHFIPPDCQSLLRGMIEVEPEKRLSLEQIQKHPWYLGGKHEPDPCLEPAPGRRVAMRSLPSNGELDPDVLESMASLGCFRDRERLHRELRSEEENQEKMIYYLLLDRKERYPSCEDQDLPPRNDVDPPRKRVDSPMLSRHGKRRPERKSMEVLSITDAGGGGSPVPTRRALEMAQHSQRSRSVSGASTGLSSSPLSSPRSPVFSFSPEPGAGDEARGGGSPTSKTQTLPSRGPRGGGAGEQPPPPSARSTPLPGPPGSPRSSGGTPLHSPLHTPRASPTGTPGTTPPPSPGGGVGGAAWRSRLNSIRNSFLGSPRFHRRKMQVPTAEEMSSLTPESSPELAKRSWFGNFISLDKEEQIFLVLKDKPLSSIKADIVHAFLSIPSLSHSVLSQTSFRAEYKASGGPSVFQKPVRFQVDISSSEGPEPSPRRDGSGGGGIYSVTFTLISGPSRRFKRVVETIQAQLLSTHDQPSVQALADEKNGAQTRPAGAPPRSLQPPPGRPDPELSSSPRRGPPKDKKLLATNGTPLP

[3] = molecular target: T2, Rhodopsin kinase GRK7 (Homo sapiens) (UniProt Q8WTQ7); assay: Inhibition of GRK7 (unknown origin) assessed as residual activity at 1000 nM by KINOMEscan analysis relative to control
T2 sequence (whole entry): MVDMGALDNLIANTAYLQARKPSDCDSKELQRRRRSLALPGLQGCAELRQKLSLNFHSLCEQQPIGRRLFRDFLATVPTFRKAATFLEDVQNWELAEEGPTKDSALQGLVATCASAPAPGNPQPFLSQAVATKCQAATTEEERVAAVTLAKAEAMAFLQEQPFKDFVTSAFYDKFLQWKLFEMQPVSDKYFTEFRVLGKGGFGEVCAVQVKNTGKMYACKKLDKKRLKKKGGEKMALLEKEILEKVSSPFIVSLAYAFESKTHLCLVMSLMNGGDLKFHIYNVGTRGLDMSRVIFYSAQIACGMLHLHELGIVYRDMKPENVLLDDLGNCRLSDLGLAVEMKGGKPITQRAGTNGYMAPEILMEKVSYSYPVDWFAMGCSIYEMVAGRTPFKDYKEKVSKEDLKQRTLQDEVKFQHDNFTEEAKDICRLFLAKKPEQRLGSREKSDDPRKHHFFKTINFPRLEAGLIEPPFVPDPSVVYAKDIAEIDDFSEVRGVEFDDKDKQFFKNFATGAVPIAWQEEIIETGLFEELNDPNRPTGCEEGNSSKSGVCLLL

[4] = molecular target: Tyrosine-protein kinase HCK (Homo sapiens) (UniProt P08631); assay: Inhibition of HCK (unknown origin) assessed as residual activity at 1000 nM by KINOMEscan analysis relative to control
Sequence of Tyrosine-protein kinase HCK (Homo sapiens) (P08631 2-526 limits assumed): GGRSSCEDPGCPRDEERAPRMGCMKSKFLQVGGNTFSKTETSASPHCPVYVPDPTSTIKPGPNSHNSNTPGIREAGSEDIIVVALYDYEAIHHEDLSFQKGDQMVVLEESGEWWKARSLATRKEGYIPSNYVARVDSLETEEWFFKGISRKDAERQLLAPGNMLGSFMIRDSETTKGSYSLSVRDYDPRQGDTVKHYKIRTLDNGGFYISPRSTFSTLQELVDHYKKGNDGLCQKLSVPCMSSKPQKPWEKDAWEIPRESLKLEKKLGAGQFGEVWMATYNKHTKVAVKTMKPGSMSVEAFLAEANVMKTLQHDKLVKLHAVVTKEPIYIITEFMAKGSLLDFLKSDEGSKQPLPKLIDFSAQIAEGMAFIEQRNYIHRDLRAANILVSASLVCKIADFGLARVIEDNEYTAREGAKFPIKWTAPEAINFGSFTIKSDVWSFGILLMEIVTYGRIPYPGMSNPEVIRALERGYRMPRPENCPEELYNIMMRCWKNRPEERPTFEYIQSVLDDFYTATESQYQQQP

[5] = molecular target: T3, Interleukin-1 receptor-associated kinase 3 (Homo sapiens) (UniProt Q9Y616); assay: Inhibition of IRAK3 (unknown origin) assessed as residual activity at 1000 nM by KINOMEscan analysis relative to control
T3 sequence (whole entry): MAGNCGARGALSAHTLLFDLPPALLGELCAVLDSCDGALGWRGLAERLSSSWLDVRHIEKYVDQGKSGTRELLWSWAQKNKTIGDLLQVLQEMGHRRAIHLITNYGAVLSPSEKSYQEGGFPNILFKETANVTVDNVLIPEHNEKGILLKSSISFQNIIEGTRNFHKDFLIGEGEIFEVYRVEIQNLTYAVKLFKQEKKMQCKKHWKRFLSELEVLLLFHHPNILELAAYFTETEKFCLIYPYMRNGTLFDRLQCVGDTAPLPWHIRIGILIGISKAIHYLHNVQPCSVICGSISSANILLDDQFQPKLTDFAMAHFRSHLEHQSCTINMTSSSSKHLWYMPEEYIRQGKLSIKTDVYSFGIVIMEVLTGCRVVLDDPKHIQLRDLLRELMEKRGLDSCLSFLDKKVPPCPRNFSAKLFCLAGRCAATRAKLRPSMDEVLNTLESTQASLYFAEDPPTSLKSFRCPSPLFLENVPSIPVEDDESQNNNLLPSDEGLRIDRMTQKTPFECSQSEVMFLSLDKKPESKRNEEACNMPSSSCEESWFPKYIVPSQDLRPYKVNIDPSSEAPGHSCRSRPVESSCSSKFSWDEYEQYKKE

[6] = molecular target: T4, Receptor-interacting serine/threonine-protein kinase 1 (Homo sapiens) (UniProt Q13546); assay: Inhibition of RIPK1 (unknown origin) assessed as residual activity at 1000 nM by KINOMEscan analysis relative to control
T4 sequence (whole entry): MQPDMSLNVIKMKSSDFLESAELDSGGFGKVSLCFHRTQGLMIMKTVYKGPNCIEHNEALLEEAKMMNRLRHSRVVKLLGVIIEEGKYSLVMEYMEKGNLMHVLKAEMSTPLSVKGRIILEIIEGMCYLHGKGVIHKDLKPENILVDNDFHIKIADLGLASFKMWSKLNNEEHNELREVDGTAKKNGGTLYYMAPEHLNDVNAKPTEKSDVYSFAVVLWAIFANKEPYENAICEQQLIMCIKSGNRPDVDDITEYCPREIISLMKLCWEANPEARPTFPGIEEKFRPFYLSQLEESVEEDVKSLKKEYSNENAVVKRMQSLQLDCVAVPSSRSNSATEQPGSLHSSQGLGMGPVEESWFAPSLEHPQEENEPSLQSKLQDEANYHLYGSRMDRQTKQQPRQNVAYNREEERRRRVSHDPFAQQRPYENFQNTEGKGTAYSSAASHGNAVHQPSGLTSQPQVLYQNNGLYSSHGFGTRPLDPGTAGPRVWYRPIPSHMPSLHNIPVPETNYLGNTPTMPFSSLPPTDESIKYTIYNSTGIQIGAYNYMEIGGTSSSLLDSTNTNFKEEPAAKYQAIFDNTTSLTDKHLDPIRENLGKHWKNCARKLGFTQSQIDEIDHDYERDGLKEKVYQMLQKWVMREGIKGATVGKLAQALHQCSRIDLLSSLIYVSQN

Sequence of Tyrosine-protein kinase ABL1 (Homo sapiens), P00519 [F317L] (P00519 whole entry F317L): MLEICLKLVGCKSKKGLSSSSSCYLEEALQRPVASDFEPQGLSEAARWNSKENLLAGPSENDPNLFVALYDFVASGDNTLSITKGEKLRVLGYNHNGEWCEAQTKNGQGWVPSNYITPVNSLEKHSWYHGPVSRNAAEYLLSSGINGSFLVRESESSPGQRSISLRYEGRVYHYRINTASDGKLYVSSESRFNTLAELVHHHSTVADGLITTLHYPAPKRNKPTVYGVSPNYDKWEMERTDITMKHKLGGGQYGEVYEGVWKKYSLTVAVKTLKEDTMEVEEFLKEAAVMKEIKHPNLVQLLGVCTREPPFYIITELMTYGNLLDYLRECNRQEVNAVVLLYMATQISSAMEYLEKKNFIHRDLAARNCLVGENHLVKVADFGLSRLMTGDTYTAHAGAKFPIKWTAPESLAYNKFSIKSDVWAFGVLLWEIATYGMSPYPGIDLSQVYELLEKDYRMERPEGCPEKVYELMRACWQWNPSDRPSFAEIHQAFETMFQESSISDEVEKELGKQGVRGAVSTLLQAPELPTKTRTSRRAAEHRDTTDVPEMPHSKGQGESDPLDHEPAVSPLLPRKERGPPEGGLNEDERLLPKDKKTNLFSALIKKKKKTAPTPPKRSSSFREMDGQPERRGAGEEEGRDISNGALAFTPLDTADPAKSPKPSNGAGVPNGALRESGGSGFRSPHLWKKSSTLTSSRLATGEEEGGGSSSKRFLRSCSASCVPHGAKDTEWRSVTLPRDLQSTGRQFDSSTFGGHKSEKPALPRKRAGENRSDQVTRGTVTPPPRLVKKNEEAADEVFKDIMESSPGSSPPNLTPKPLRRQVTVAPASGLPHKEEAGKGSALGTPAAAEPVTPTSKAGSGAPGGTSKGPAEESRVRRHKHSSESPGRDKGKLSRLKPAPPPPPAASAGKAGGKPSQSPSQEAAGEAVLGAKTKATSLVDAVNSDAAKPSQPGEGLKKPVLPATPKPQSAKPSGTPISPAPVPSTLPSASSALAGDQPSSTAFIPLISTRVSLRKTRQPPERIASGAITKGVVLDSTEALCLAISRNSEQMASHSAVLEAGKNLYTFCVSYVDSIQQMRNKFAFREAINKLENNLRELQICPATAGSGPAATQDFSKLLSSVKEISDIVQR

| Structure (SMILES) | Activity [1] | Activity [2] | Activity [3] | Activity [4] | Activity [5] | Activity [6] |
| --- | --- | --- | --- | --- | --- | --- |
| COc1cc2ncnc(N[C@H](C)c3cccc4ccccc34)c2cc1OC | 99% | 100% | 81% | 93% | 100% | 93% |
| COc1cc2nc(C)nc(N[C@H](C)c3cccc(-c4cn[nH]c4)c3)c2cc1OC | 99% | 100% | 100% | 77% | 100% | 85% |
